{"source": "the OligoGym collection", "key": {"DGAT2": {"target": "DGAT2", "conditions": "ASO"}, "SNHG14": {"target": "SNHG14", "conditions": "ASO"}}, "note": "Several values for one entry are separate records, joined by “and”; a condition that tells them apart may be missing. Equal entries are not always repeated. After the bases stand the sugars from the 5' end (letter, count) and the backbone: PS all phosphorothioate, else s phosphorothioate and o phosphodiester by linkage. Methylation of C is not given here. e = 2'-O-(2-methoxyethyl) (MOE); l = locked nucleic acid (LNA); d = 2'-deoxy (DNA)"}
{"sequence": "GGCTTCACCGTCCCACAGCA (sugars e5 d10 e5, PS)", "values": [{"measurement": "target mRNA inhibition", "setting": "DGAT2; HepG2, 0.12 µM", "value": 39, "unit": "%"}]}
{"sequence": "CCTGTAGCTGCTTTTCCACC (sugars e5 d10 e5, PS)", "values": [{"measurement": "target mRNA inhibition", "setting": "DGAT2; HepG2, 0.12 µM", "value": 29, "unit": "%"}]}
{"sequence": "CCTACAGCAGAGGGAAGATG (sugars e5 d10 e5, PS)", "values": [{"measurement": "target mRNA inhibition", "setting": "DGAT2; HepG2, 0.12 µM", "value": 13, "unit": "%"}]}
{"sequence": "GACTGCATTCTTGCCAGGCA (sugars e5 d10 e5, PS)", "values": [{"measurement": "target mRNA inhibition", "setting": "DGAT2; HepG2, 0.12 µM", "value": 60, "unit": "%"}]}
{"sequence": "GCTCAGTTCTTCCAACCAGT (sugars e5 d10 e5, PS)", "values": [{"measurement": "target mRNA inhibition", "setting": "DGAT2; HepG2, 2.5 µM", "value": "87% and 86%"}, {"measurement": "target mRNA inhibition", "setting": "DGAT2; HepG2, 10 µM", "value": "94% and 93%"}]}
{"sequence": "CCTGGACAAGTCCTGCCCAT (sugars e5 d10 e5, PS)", "values": [{"measurement": "target mRNA inhibition", "setting": "DGAT2; HepG2, 0.12 µM", "value": 73, "unit": "%"}]}
{"sequence": "TTTGCTCAGTTCTTCCAACC (sugars e5 d10 e5, PS)", "values": [{"measurement": "target mRNA inhibition", "setting": "DGAT2; HepG2, 2.5 µM", "value": "72% and 70%"}, {"measurement": "target mRNA inhibition", "setting": "DGAT2; HepG2, 10 µM", "value": "93% and 92%"}]}
{"sequence": "CAGGCCCCACTGCTTAGAGG (sugars e5 d10 e5, PS)", "values": [{"measurement": "target mRNA inhibition", "setting": "DGAT2; HepG2, 0.12 µM", "value": 48, "unit": "%"}]}
{"sequence": "TTTCCCATGGGAGAAGATAA (sugars e5 d10 e5, PS)", "values": [{"measurement": "target mRNA inhibition", "setting": "DGAT2; HepG2, 0.12 µM", "value": 55, "unit": "%"}]}
{"sequence": "ACAGCGATGAGCCAGCA (sugars e3 d10 e4, PS)", "values": [{"measurement": "target mRNA inhibition", "setting": "DGAT2; HepG2, 2.5 µM", "value": 45, "unit": "%"}, {"measurement": "target mRNA inhibition", "setting": "DGAT2; HepG2, 10 µM", "value": 88, "unit": "%"}]}
{"sequence": "CTCCCATTCTTTGAAAGCAA (sugars e5 d10 e5, PS)", "values": [{"measurement": "target mRNA inhibition", "setting": "DGAT2; HepG2, 2.5 µM", "value": 30, "unit": "%"}, {"measurement": "target mRNA inhibition", "setting": "DGAT2; HepG2, 10 µM", "value": 54, "unit": "%"}]}
{"sequence": "CAGGGTGACTTTGCCCCATT (sugars e5 d10 e5, PS)", "values": [{"measurement": "target mRNA inhibition", "setting": "DGAT2; HepG2, 0.12 µM", "value": 43, "unit": "%"}]}
{"sequence": "CATTGCCACCCCCATCCTCA (sugars e5 d10 e5, PS)", "values": [{"measurement": "target mRNA inhibition", "setting": "DGAT2; HepG2, 0.12 µM", "value": 9, "unit": "%"}]}
{"sequence": "CCTGCTTGTACACTTCATTC (sugars e5 d10 e5, PS)", "values": [{"measurement": "target mRNA inhibition", "setting": "DGAT2; HepG2, 2.5 µM", "value": 51, "unit": "%"}, {"measurement": "target mRNA inhibition", "setting": "DGAT2; HepG2, 10 µM", "value": 87, "unit": "%"}]}
{"sequence": "TGTAATGGTTTAGCAAAATT (sugars e5 d10 e5, PS)", "values": [{"measurement": "target mRNA inhibition", "setting": "DGAT2; HepG2, 0.12 µM", "value": 26, "unit": "%"}]}
{"sequence": "GGTATCCAAAGATATAGTTC (sugars e5 d10 e5, PS)", "values": [{"measurement": "target mRNA inhibition", "setting": "DGAT2; HepG2, 0.12 µM", "value": 43, "unit": "%"}]}
{"sequence": "GTGGTTGCAATGTTGCCATC (sugars e5 d10 e5, PS)", "values": [{"measurement": "target mRNA inhibition", "setting": "DGAT2; HepG2, 2.5 µM", "value": "83% and 81% and 76%"}, {"measurement": "target mRNA inhibition", "setting": "DGAT2; HepG2, 10 µM", "value": "92% and 84% and 91%"}]}
{"sequence": "CAGGTTGTGTGTCTTCACCA (sugars e2 d13 e5, PS)", "values": [{"measurement": "target mRNA inhibition", "setting": "DGAT2; HepG2, 0.12 µM", "value": 62, "unit": "%"}]}
{"sequence": "TGGACCCATCGGCCCCAGGA (sugars e5 d10 e5, PS)", "values": [{"measurement": "target mRNA inhibition", "setting": "DGAT2; HepG2, 0.12 µM", "value": 52, "unit": "%"}]}
{"sequence": "TGATAGCATTGCCACTCCCA (sugars e5 d10 e5, PS)", "values": [{"measurement": "target mRNA inhibition", "setting": "DGAT2; HepG2, 0.12 µM", "value": 64, "unit": "%"}]}
{"sequence": "ATATTGATTCAATTCCC (sugars lddllddddddlddlll, PS)", "values": [{"measurement": "target mRNA inhibition", "setting": "SNHG14; Human Neuronal Cell, 7.5 µM", "value": 62, "unit": "%"}]}
{"sequence": "AAAATTATTTATACACCATC (sugars ldlllllddddddlldddll, PS)", "values": [{"measurement": "target mRNA inhibition", "setting": "SNHG14; Human Neuronal Cell, 7.5 µM", "value": 61, "unit": "%"}]}
{"sequence": "AAAATCTCAACTACCATTT (sugars llddlldddddddlldlll, PS)", "values": [{"measurement": "target mRNA inhibition", "setting": "SNHG14; Human Neuronal Cell, 7.5 µM", "value": 52, "unit": "%"}]}
{"sequence": "TACTCTGCAATACACCA (sugars l1 d2 l2 d10 l2, PS)", "values": [{"measurement": "target mRNA inhibition", "setting": "SNHG14; Human Neuronal Cell, 7.5 µM", "value": 56, "unit": "%"}]}
{"sequence": "ATATTGATTCAATTCCC (sugars l2 d2 l1 d9 l3, PS)", "values": [{"measurement": "target mRNA inhibition", "setting": "SNHG14; Human Neuronal Cell, 7.5 µM", "value": 75, "unit": "%"}]}
{"sequence": "TTACACTTAATTATACTTCC (sugars ldldddlddddddddlddll, PS)", "values": [{"measurement": "target mRNA inhibition", "setting": "SNHG14; Human Neuronal Cell, 7.5 µM", "value": 64, "unit": "%"}]}
{"sequence": "TTATAGCCATTCTATCT (sugars ldddlddddddldddll, PS)", "values": [{"measurement": "target mRNA inhibition", "setting": "SNHG14; Human Neuronal Cell, 7.5 µM", "value": 42, "unit": "%"}]}
{"sequence": "GCACATTCTTTCTATACC (sugars ldldldddddddddddll, PS)", "values": [{"measurement": "target mRNA inhibition", "setting": "SNHG14; Human Neuronal Cell, 7.5 µM", "value": 61, "unit": "%"}]}
{"sequence": "AAATTTCCAAACCTTTC (sugars l2 d11 l4, PS)", "values": [{"measurement": "target mRNA inhibition", "setting": "SNHG14; Human Neuronal Cell, 0.2 µM", "value": 42, "unit": "%"}, {"measurement": "target mRNA inhibition", "setting": "SNHG14; Human Neuronal Cell, 1 µM", "value": 53, "unit": "%"}]}
{"sequence": "AGTTCTACTATACTTTCC (sugars l1 d1 l1 d13 l2, PS)", "values": [{"measurement": "target mRNA inhibition", "setting": "SNHG14; Human Neuronal Cell, 7.5 µM", "value": 40, "unit": "%"}]}
{"sequence": "CCTCAATACTCTACTT (sugars l4 d10 l2, PS)", "values": [{"measurement": "target mRNA inhibition", "setting": "SNHG14; Human Neuronal Cell, 0.2 µM", "value": 43, "unit": "%"}, {"measurement": "target mRNA inhibition", "setting": "SNHG14; Human Neuronal Cell, 1 µM", "value": 54, "unit": "%"}]}
{"sequence": "ATATTGATTCAATTCCC (sugars l2 d1 l1 d10 l3, PS)", "values": [{"measurement": "target mRNA inhibition", "setting": "SNHG14; Human Neuronal Cell, 7.5 µM", "value": 65, "unit": "%"}]}
{"sequence": "TTATAGCCATTCTATCT (sugars l2 d9 l1 d3 l2, PS)", "values": [{"measurement": "target mRNA inhibition", "setting": "SNHG14; Human Neuronal Cell, 7.5 µM", "value": 52, "unit": "%"}]}
{"sequence": "AGTCCTTCCTTTAACCA (sugars l2 d13 l2, PS)", "values": [{"measurement": "target mRNA inhibition", "setting": "SNHG14; Human Neuronal Cell, 0.2 µM", "value": 21, "unit": "%"}, {"measurement": "target mRNA inhibition", "setting": "SNHG14; Human Neuronal Cell, 1 µM", "value": 41, "unit": "%"}]}
{"sequence": "TTCACCTAATAGCACCA (sugars l2 d11 l4, PS)", "values": [{"measurement": "target mRNA inhibition", "setting": "SNHG14; Human Neuronal Cell, 0.2 µM", "value": 54, "unit": "%"}, {"measurement": "target mRNA inhibition", "setting": "SNHG14; Human Neuronal Cell, 1 µM", "value": 64, "unit": "%"}]}
{"sequence": "GTTCTACTATACTTTCCT (sugars l1 d15 l2, PS)", "values": [{"measurement": "target mRNA inhibition", "setting": "SNHG14; Human Neuronal Cell, 7.5 µM", "value": -8, "unit": "%"}]}
{"sequence": "CCTTTAATGCTTCTAAC (sugars l2 d11 l4, PS)", "values": [{"measurement": "target mRNA inhibition", "setting": "SNHG14; Human Neuronal Cell, 0.2 µM", "value": 35, "unit": "%"}, {"measurement": "target mRNA inhibition", "setting": "SNHG14; Human Neuronal Cell, 1 µM", "value": 53, "unit": "%"}]}
{"sequence": "GTTACCTACATCTCATA (sugars l2 d11 l4, PS)", "values": [{"measurement": "target mRNA inhibition", "setting": "SNHG14; Human Neuronal Cell, 0.2 µM", "value": -4, "unit": "%"}, {"measurement": "target mRNA inhibition", "setting": "SNHG14; Human Neuronal Cell, 1 µM", "value": 10, "unit": "%"}, {"measurement": "target mRNA inhibition", "setting": "SNHG14; Human Neuronal Cell, 5 µM", "value": 21, "unit": "%"}, {"measurement": "target mRNA inhibition", "setting": "SNHG14; Mouse Primary Neuronal Cell, 0.005 µM", "value": 92, "unit": "%"}]}
{"sequence": "CCAAATAAGCAAACTC (sugars l3 d10 l3, PS)", "values": [{"measurement": "target mRNA inhibition", "setting": "SNHG14; Human Neuronal Cell, 0.2 µM", "value": 60, "unit": "%"}, {"measurement": "target mRNA inhibition", "setting": "SNHG14; Human Neuronal Cell, 1 µM", "value": 39, "unit": "%"}]}
{"sequence": "TTTAACCTTGCTTATA (sugars l2 d10 l4, PS)", "values": [{"measurement": "target mRNA inhibition", "setting": "SNHG14; Human Neuronal Cell, 0.2 µM", "value": 23, "unit": "%"}, {"measurement": "target mRNA inhibition", "setting": "SNHG14; Human Neuronal Cell, 1 µM", "value": 25, "unit": "%"}]}
{"sequence": "ACTGTTTATACCCTTTCC (sugars l1 d2 l1 d12 l2, PS)", "values": [{"measurement": "target mRNA inhibition", "setting": "SNHG14; Human Neuronal Cell, 7.5 µM", "value": 46, "unit": "%"}]}
{"sequence": "TTATAGCCATTCTATCT (sugars l1 d10 l2 d2 l2, PS)", "values": [{"measurement": "target mRNA inhibition", "setting": "SNHG14; Human Neuronal Cell, 7.5 µM", "value": 48, "unit": "%"}]}
{"sequence": "AAAATCTCAACTACCATTTT (sugars llddllddddddddddldll, PS)", "values": [{"measurement": "target mRNA inhibition", "setting": "SNHG14; Human Neuronal Cell, 7.5 µM", "value": 23, "unit": "%"}]}
{"sequence": "GATCATTCTCAACAATT (sugars l2 d1 l2 d6 l6, PS)", "values": [{"measurement": "target mRNA inhibition", "setting": "SNHG14; Human Neuronal Cell, 7.5 µM", "value": 10, "unit": "%"}]}
{"sequence": "TTTATCTATTTAATTTACA (sugars l4 d13 l2, PS)", "values": [{"measurement": "target mRNA inhibition", "setting": "SNHG14; Human Neuronal Cell, 0.2 µM", "value": 7, "unit": "%"}, {"measurement": "target mRNA inhibition", "setting": "SNHG14; Human Neuronal Cell, 1 µM", "value": 6, "unit": "%"}]}
